Holding throughout (test): cAMP functional assay (HTRF) in HEK293 cells in presence of 0.1% casein
Common to all, as to assay type: cell-based

For experiment [1], the target named is T1, human glucagon receptor (GcgR) (Homo sapiens, UniProt P47871).
T1 construct: expressed in transfected cells; host or cells: HEK293
The settings on record: HEK293 cells expressing human GcgR, geometric mean, read-out: hGcgR cAMP Rel EC50 nM (SEM, n).

The target of experiment [2] is T2, human glucose-dependent insulinotropic peptide receptor (GIPR) (Homo sapiens, UniProt P48546).
T2 construct: expressed in transfected cells; host or cells: HEK293
T2 sequence (P48546 22-466): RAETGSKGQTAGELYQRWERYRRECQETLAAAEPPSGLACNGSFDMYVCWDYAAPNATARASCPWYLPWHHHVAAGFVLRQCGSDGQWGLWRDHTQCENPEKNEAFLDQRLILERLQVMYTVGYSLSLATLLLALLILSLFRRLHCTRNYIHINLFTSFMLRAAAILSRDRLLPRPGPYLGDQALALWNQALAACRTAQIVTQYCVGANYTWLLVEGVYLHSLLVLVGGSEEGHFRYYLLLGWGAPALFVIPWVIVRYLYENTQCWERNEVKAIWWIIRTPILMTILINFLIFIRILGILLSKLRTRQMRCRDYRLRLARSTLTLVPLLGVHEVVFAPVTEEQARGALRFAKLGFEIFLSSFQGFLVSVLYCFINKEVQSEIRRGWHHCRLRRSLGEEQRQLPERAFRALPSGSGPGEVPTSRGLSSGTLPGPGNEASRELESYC
The note with it: HEK293 cells expressing human GIPR, geometric mean, read-out: hGIPR cAMP Rel EC50 nM (SEM, n).

The target of experiment [3] is T3, human GLP-1 receptor (GLP-1R) (Homo sapiens, UniProt P43220).
T3 construct: expressed in transfected cells; host or cells: HEK293
The settings on record: HEK293 cells expressing human GLP-1R, geometric mean, read-out: hGLP1R cAMP Rel EC50 nM (SEM, n).

The structures appear in SMILES notation. *1 amine or outer side, *2 acyl side, *3 side chain or, on linkers, in order; H or OH if unused. Where a SMILES comes first, the peptide text is derived from it. Side-chain parts run from the residue outwards. [ ]: non-standard residue; d: D form. The star is where a group is joined. C20 diacid = O=C(O)CCCCCCCCCCCCCCCCCCC(=O)*; C18 diacid = O=C(O)CCCCCCCCCCCCCCCCC(=O)*; αMePhe(2-F) = C[C@](N)(Cc1ccccc1F)C(=O)O; γGlu = O=C(O)[C@H](CCC(=O)[*:2])N[*:1]; 4Pal = N[C@@H](Cc1ccncc1)C(=O)O; αMeL = CC(C)C[C@](C)(N)C(=O)O; Iva = CC[C@](C)(N)C(=O)O; Orn = NCCC[C@H](N)C(=O)O; AEEA = NCCOCCOCC(=O)O; Aib = CC(C)(N)C(=O)O

T1 sequence (P47871 26-477): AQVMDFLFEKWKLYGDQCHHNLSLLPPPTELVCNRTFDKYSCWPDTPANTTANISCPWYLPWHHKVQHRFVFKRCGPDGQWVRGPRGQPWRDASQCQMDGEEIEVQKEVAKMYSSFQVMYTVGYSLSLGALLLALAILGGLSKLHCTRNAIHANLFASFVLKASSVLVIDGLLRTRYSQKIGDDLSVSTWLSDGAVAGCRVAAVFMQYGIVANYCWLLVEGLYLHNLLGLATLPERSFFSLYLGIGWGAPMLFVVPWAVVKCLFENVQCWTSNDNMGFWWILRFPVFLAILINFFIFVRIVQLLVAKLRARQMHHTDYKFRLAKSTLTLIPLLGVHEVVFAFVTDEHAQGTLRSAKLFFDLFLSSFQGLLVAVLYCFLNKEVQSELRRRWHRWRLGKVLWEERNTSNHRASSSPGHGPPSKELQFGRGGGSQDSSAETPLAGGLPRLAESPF
T3 sequence (P43220 24-463): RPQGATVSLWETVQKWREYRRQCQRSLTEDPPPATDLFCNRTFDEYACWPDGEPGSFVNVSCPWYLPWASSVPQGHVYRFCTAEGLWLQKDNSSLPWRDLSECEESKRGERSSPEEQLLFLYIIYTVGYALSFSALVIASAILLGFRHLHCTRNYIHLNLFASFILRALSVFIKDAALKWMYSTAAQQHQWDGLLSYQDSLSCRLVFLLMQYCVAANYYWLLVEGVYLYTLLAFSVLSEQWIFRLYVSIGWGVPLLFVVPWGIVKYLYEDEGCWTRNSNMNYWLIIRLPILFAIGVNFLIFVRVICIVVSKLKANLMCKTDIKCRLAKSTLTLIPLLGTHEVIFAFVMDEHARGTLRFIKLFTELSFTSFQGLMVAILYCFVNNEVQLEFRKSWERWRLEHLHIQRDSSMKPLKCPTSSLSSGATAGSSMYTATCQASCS

Broadly, the EC50 is the concentration giving half of the maximal effect. Regarding `CC[C@H](C)[C@H](NC(=O)[C@H](CO)NC(=O)[C@H](Cc1ccc(O)cc1)NC(=O)[C@H](CC(=O)O)NC(=O)[C@H](CO)NC(=O)[C@@H](NC(=O)[C@](C)(CC)NC(=O)[C@@H](NC(=O)CNC(=O)[C@H](CCC(=O)O)NC(=O)C(C)(C)NC(=O)[C@@H](N)Cc1ccc(O)cc1)[C@@H](C)O)[C@@H](C)CC)C(=O)N[C@@](C)(CC(C)C)C(=O)N[C@@H](CC(C)C)C(=O)N[C@@H](CC(=O)O)C(=O)N[C@@H](CCCN)C(=O)N[C@@H](CCCCNC(=O)COCCOCCNC(=O)COCCOCCNC(=O)CC[C@H](NC(=O)CCCCCCCCCCCCCCCCCCC(=O)O)C(=O)O)C(=O)N[C@@H](Cc1c[nH]cn1)C(=O)N[C@@H](CCC(N)=O)C(=O)NC(C)(C)C(=O)N[C@@H](CC(=O)O)C(=O)N[C@@H](Cc1ccccc1)C(=O)N[C@H](C(=O)N[C@@H](CCC(=O)O)C(=O)N[C@@H](Cc1ccncc1)C(=O)N[C@@H](CC(C)C)C(=O)N[C@@H](CC(C)C)C(=O)N[C@@H](CCC(=O)O)C(=O)NCC(=O)NCC(=O)N1CCC[C@H]1C(=O)N[C@@H](CO)C(=O)N[C@@H](CO)C(=O)NCC(=O)N[C@@H](C)C(=O)N1CCC[C@H]1C(=O)N1CCC[C@H]1C(=O)N1CCC[C@H]1C(=O)N[C@@H](CO)C(N)=O)C(C)C` [Example 76] (H-Y[Aib]EGT[Iva]ISDYSI[αMeL]LD[Orn]K([AEEA-AEEA-γGlu-C20 diacid])HQ[Aib]DFVE[4Pal]LLEGGPSSGAPPPS-NH2), the EC50 in experiment [1] was 1200 nM; in experiment [2], 0.0154 nM; in experiment [3], > 5000 nM.
As to `CC[C@H](C)[C@H](NC(=O)[C@H](CO)NC(=O)[C@H](Cc1ccc(O)cc1)NC(=O)[C@H](CC(=O)O)NC(=O)[C@H](CO)NC(=O)[C@@H](NC(=O)[C@](C)(CC)NC(=O)[C@@H](NC(=O)CNC(=O)[C@H](CCC(=O)O)NC(=O)C(C)(C)NC(=O)[C@@H](N)Cc1ccc(O)cc1)[C@@H](C)O)[C@@H](C)CC)C(=O)N[C@@](C)(CC(C)C)C(=O)N[C@@H](CC(C)C)C(=O)N[C@@H](CC(=O)O)C(=O)N[C@@H](CCCN)C(=O)N[C@@H](CCCCNC(=O)COCCOCCNC(=O)COCCOCCNC(=O)CC[C@H](NC(=O)CCCCCCCCCCCCCCCCCCC(=O)O)C(=O)O)C(=O)N[C@@H](Cc1c[nH]cn1)C(=O)N[C@@H](CCC(N)=O)C(=O)NC(C)(C)C(=O)N[C@@H](CC(=O)O)C(=O)N[C@@H](Cc1ccccc1)C(=O)N[C@H](C(=O)N[C@@H](CCC(=O)O)C(=O)N[C@@H](Cc1ccncc1)C(=O)N[C@@H](CC(C)C)C(=O)N[C@@H](CC(C)C)C(=O)N[C@@H](CCC(=O)O)C(=O)N[C@H](C(=O)NCC(=O)N1CCC[C@H]1C(=O)N[C@@H](CO)C(=O)N[C@@H](CO)C(=O)NCC(=O)N[C@@H](C)C(=O)N1CCC[C@H]1C(=O)N1CCC[C@H]1C(=O)N1CCC[C@H]1C(=O)N[C@@H](CO)C(N)=O)[C@@H](C)O)C(C)C` [Example 77] (H-Y[Aib]EGT[Iva]ISDYSI[αMeL]LD[Orn]K([AEEA-AEEA-γGlu-C20 diacid])HQ[Aib]DFVE[4Pal]LLETGPSSGAPPPS-NH2), the EC50 in experiment [1] is 2660 nM; in experiment [2], 0.0265 nM; in experiment [3], > 5000 nM.
Consider `CC[C@H](C)[C@H](NC(=O)[C@H](CO)NC(=O)[C@H](Cc1ccc(O)cc1)NC(=O)[C@H](CC(=O)O)NC(=O)[C@H](CO)NC(=O)[C@@H](NC(=O)[C@](C)(Cc1ccccc1F)NC(=O)[C@@H](NC(=O)CNC(=O)[C@H](CCC(=O)O)NC(=O)C(C)(C)NC(=O)[C@@H](N)Cc1ccc(O)cc1)[C@@H](C)O)[C@@H](C)CC)C(=O)N[C@@H](CC(C)C)C(=O)N[C@@H](CC(C)C)C(=O)N[C@@H](CC(=O)O)C(=O)N[C@@H](CCCCN)C(=O)N[C@H](C(=O)N[C@@H](Cc1c[nH]cn1)C(=O)N[C@@H](CCC(N)=O)C(=O)NC(C)(C)C(=O)N[C@@H](CC(=O)O)C(=O)N[C@@H](Cc1ccccc1)C(=O)N[C@H](C(=O)N[C@@H](CCC(=O)O)C(=O)N[C@@H](Cc1ccncc1)C(=O)N[C@@H](CCCCNC(=O)COCCOCCNC(=O)COCCOCCNC(=O)CC[C@H](NC(=O)CCCCCCCCCCCCCCCCCCC(=O)O)C(=O)O)C(=O)N[C@@H](CC(C)C)C(=O)N[C@@H](CCC(=O)O)C(=O)NCC(=O)NCC(=O)N1CCC[C@H]1C(=O)N[C@@H](CO)C(=O)N[C@@H](CO)C(=O)NCC(=O)N[C@@H](C)C(=O)N1CCC[C@H]1C(=O)N1CCC[C@H]1C(=O)N1CCC[C@H]1C(=O)N[C@@H](CO)C(N)=O)C(C)C)[C@@H](C)CC` [Example 119] (H-Y[Aib]EGT[αMePhe(2-F)]ISDYSILLDKIHQ[Aib]DFVE[4Pal]K([AEEA-AEEA-γGlu-C20 diacid])LEGGPSSGAPPPS-NH2), for which the EC50 in experiment [1] is > 5000 nM; in experiment [2] it was 0.022 nM; in experiment [3], > 5000 nM.
With `CC[C@H](C)[C@H](NC(=O)[C@H](CO)NC(=O)[C@H](Cc1ccc(O)cc1)NC(=O)[C@H](CC(=O)O)NC(=O)[C@H](CO)NC(=O)[C@@H](NC(=O)[C@H](Cc1ccccc1)NC(=O)[C@@H](NC(=O)CNC(=O)[C@H](CCC(=O)O)NC(=O)C(C)(C)NC(=O)[C@@H](N)Cc1ccc(O)cc1)[C@@H](C)O)[C@@H](C)CC)C(=O)N[C@@H](CC(C)C)C(=O)N[C@@H](CC(C)C)C(=O)N[C@@H](CC(=O)O)C(=O)N[C@@H](CCCCN)C(=O)N[C@@H](CCCCNC(=O)COCCOCCNC(=O)COCCOCCNC(=O)CC[C@H](NC(=O)CCCCCCCCCCCCCCCCC(=O)O)C(=O)O)C(=O)N[C@@H](Cc1c[nH]cn1)C(=O)N[C@@H](CCC(N)=O)C(=O)NC(C)(C)C(=O)N[C@@H](CC(=O)O)C(=O)N[C@@H](Cc1ccccc1)C(=O)N[C@H](C(=O)N[C@@H](CCC(=O)O)C(=O)N[C@@H](Cc1ccncc1)C(=O)N[C@@H](CC(C)C)C(=O)N[C@@H](CC(C)C)C(=O)N[C@@H](C)C(=O)NCC(=O)NCC(=O)N1CCC[C@H]1C(=O)N[C@@H](CO)C(=O)N[C@@H](CO)C(=O)NCC(=O)N[C@@H](C)C(=O)N1CCC[C@H]1C(=O)N1CCC[C@H]1C(=O)N1CCC[C@H]1C(=O)N[C@@H](CO)C(N)=O)C(C)C` [Example 22], the 50% effective concentration (EC50) is 1250 nM in experiment [1], 0.0345 nM in experiment [2] and > 5000 nM in experiment [3].
Turning to `CC[C@H](C)[C@H](NC(=O)[C@H](CO)NC(=O)[C@H](Cc1ccc(O)cc1)NC(=O)[C@H](CC(=O)O)NC(=O)[C@H](CO)NC(=O)[C@@H](NC(=O)[C@](C)(Cc1ccccc1F)NC(=O)[C@@H](NC(=O)CNC(=O)[C@H](CCC(=O)O)NC(=O)C(C)(C)NC(=O)[C@@H](N)Cc1ccc(O)cc1)[C@@H](C)O)[C@@H](C)CC)C(=O)N[C@@H](C)C(=O)N[C@@H](CC(C)C)C(=O)N[C@@H](CC(=O)O)C(=O)N[C@@H](CCCCN)C(=O)N[C@H](C(=O)N[C@@H](Cc1c[nH]cn1)C(=O)N[C@@H](CCC(N)=O)C(=O)NC(C)(C)C(=O)N[C@@H](CC(=O)O)C(=O)N[C@@H](Cc1ccccc1)C(=O)N[C@H](C(=O)N[C@@H](CCC(=O)O)C(=O)N[C@@H](Cc1ccncc1)C(=O)N[C@@H](CCCCNC(=O)COCCOCCNC(=O)COCCOCCNC(=O)CC[C@H](NC(=O)CCCCCCCCCCCCCCCCCCC(=O)O)C(=O)O)C(=O)N[C@@H](CC(C)C)C(=O)N[C@@H](CCC(=O)O)C(=O)N[C@@H](C)C(=O)NCC(=O)N1CCC[C@H]1C(=O)N[C@@H](CO)C(=O)N[C@@H](CO)C(=O)NCC(=O)N[C@@H](C)C(=O)N1CCC[C@H]1C(=O)N1CCC[C@H]1C(=O)N1CCC[C@H]1C(=O)N[C@@H](CO)C(N)=O)C(C)C)[C@@H](C)CC` [Example 113] (H-Y[Aib]EGT[αMePhe(2-F)]ISDYSIALDKIHQ[Aib]DFVE[4Pal]K([AEEA-AEEA-γGlu-C20 diacid])LEAGPSSGAPPPS-NH2), the figures for the EC50 in experiment [1], in experiment [2] and in experiment [3] were > 5000 nM, 0.0142 nM and > 5000 nM, respectively.
Consider `CC[C@H](C)[C@H](NC(=O)[C@H](CO)NC(=O)[C@H](Cc1ccc(O)cc1)NC(=O)[C@H](CC(=O)O)NC(=O)[C@H](CO)NC(=O)[C@@H](NC(=O)[C@H](Cc1ccccc1)NC(=O)[C@@H](NC(=O)CNC(=O)[C@H](CCC(=O)O)NC(=O)[C@@H](C)NC(=O)[C@@H](N)Cc1ccc(O)cc1)[C@@H](C)O)[C@@H](C)CC)C(=O)N[C@@H](CC(C)C)C(=O)N[C@@H](CC(C)C)C(=O)N[C@@H](CC(=O)O)C(=O)N[C@@H](CCCCN)C(=O)N[C@@H](CCCCNC(=O)COCCOCCNC(=O)COCCOCCNC(=O)CC[C@H](NC(=O)CCCCCCCCCCCCCCCCC(=O)O)C(=O)O)C(=O)N[C@@H](C)C(=O)N[C@@H](CCC(N)=O)C(=O)NC(C)(C)C(=O)N[C@@H](CCC(=O)O)C(=O)N[C@@H](Cc1ccccc1)C(=O)N[C@H](C(=O)N[C@@H](CC(N)=O)C(=O)N[C@@H](Cc1c[nH]c2ccccc12)C(=O)N[C@@H](CC(C)C)C(=O)N[C@@H](CC(C)C)C(=O)N[C@@H](C)C(=O)N[C@@H](CCC(N)=O)C(=O)NCC(=O)N1CCC[C@H]1C(=O)N[C@@H](CO)C(=O)N[C@@H](CO)C(=O)NCC(=O)N[C@@H](C)C(=O)N1CCC[C@H]1C(=O)N1CCC[C@H]1C(=O)N1CCC[C@H]1C(=O)N[C@@H](CO)C(N)=O)C(C)C` [Example 20] (H-Y[dA]EGTFISDYSILLDKK([AEEA-AEEA-γGlu-C18 diacid])AQ[Aib]EFVNWLLAQGPSSGAPPPS-NH2), for which the EC50 in experiment [1] is > 5000 nM; in experiment [2], 0.00933 nM; in experiment [3] it was > 5000 nM.

For the origin of these results see patent US12723063B2, “GIPR-agonist compounds” (Eli Lilly and Company, priority 2019, dated 2026).
